According to patent US20060127400A1, “Activation of regulatory T cells by alpha-melanocyte stimulating hormone” (THE SCHEPENS EYE RESEARCH INSTITUTE, INC., priority 1999, published 2006):
Entries after “also recorded” stand apart in the source; their conditions may differ. No end group written: not given here.

Test system: primed T cells
Assay: total TGF-β production by TCR-stimulated primed T cells, Mv1Lu (CCL-64) bioassay
Type: cell-based, mouse (BALB/c)
Conditions: 48 h
Description: TGF-β bioassay. To measure total TGF-β, 100 μl of conditioned media was pretreated according to standard procedures (24) with 10 μl 1N HCL to lower the media pH to 2 and incubated for 1 hour at 4° C. The acid was neutralized with 20 μl of a 1:1 mixture of 1N NaOH: 1M HEPES returning the culture supernatant to a pH 7.3. The transiently acidified conditioned media was then used in the Mv1Lu assay; diluted 1:4 in EMEM+0.5% FBS. To the wells of a Falcon 96-well flat-bottom plate, 100 μl of diluted transiently acidified samples were added with 100 μl of 1×10^5 Mv1Lu cells (CCL-64; ATCC, Rockville, Md.). The plate was incubated for 20 hours at 37° C., 5% CO2 followed by the addition of 20 μl of 50 μCi/ml 3H-thymidine and the plate was incubated for an additional 4 hours. Supernatant was discarded and 50 μl of 10× Trypsin-EDTA (Biowhittaker, Walkersville, Md.) solution was added to each well and the plate was incubated for 15 minute at 37° C. The cells were collected onto filter paper using a Tomtec Plate Harvester 96 and counts per minute (CPM) of incorporation 3H-thymidine was measured using a Wallac 1205 Betaplate Liquid Scintillation Counter. Cultures of known amounts of purified activated TGF-β1, 20 ng/ml to 0.2 pg/ml (R&:D Systems), were prepared in the same plate for calculating a standard curve to quantify the concentration of total TGF-β in the samples.
Primed T Cell In Vitro Assays. From draining lymph nodes of BALB/c mice immunized 7 days previously with MT-Ag, primed T cells were isolated using CD3 enrichment columns (R&D Systems). T-cells (4×10^5 cells) suspended in serum-free media were added to the wells of a 96 well, round bottom plate (Corning). To the wells were added α-MSH (30 pg/ml) and anti-TCR antibody (2C11; 1 μg/ml) diluted in serum-free culture media. Various concentrations of TGF-β1 or TGF-β2 in media were added. In a second set of experiments TGF-β1 or TGF-β2 at a fixed concentration of 5 ng/ml were added to the wells at various times (0, 2, 4 and 6 hours) after addition of anti-TCR antibody. The cultures were incubated for 24 hours and 0.5 μCi of 3H-thymidine (NEM, Boston, Mass.) was added to the wells and the cultures were incubated for an additional 24 hours. The cells were collected and incorporated radiolabeled was measured by scintillation counting. Production of TGF-β by the treated primed T cells was done by centrifuging the culture plates 24 hours after the addition of anti-TCR antibody, removing the supernatant, washing the cultures once and adding fresh media. […]
FIG. 4 is a bar graph of TGF-β production by primed T cells TCR-stimulated in the presence of α-MSH. […] Significance (p=0.05) was determined by Student's t-test between TGF-β concentrations in cultures of activated α-MSH treated T cells and T cells activated in the absence of α-MSH. […]

α-melanocyte stimulating hormone (SYSMEHFRWGKPV; not fully specified; ends and bridges not checked; UniProt P01189 138-150, looked up) [α-MSH, synthetic α-MSH (Peninsula Laboratories); thirteen-amino acid neuropeptide derived from POMC]
TGF-β production by TCR-stimulated primed T cells (serum-free, transiently acidified supernatant): enhanced levels; also recorded: significantly enhanced | threshold of α-MSH concentration needed to induce TGF-β1 production (TCR-stimulated T cells): 30 pg/mL
